“And” between values parts separate entries of the source, which are not always exact repeats. Equal values may be shown once. The source made the active and inactive calls.
What was measured:
Vero [1] = assay: West Nile virus CPE inhibition, SAR follow-up, cell-based, synthesized analogs (AID 2238); assay type: functional; details: Chlorocebus sabaeus
Vero [2] = assay: Vero E6 cell cytotoxicity, SAR follow-up, cytotoxicity control for West Nile virus antiviral project, synthesized analogs (AID 2244); assay type: functional; details: Chlorocebus sabaeus
Vero [3] = assay: cytotoxicity of synthesized analogs in Vero 76, SAR follow-up, cytotoxicity control for West Nile virus antiviral project, Vero 76 cells (AID 2414); assay type: functional, Chlorocebus sabaeus
Vero [4] = assay: West Nile virus antiviral activity, cell-based, CPE readout (AID 1621); assay type: functional; details: Chlorocebus sabaeus
Vero [5] = assay: West Nile virus cytopathic effect inhibition, cell-based (AID 2419); assay type: functional; details: Chlorocebus sabaeus
[6] = A Cell Based Assay for the Identification of Probe candidate Compounds with Anti- Venezuelan Equine Encephalitis virus. [Related pubchem assays: 2409, 2419, 1621, 2238, 2405, 2024, 2065, 2402, 2414, 1635, 1650, 2244 ]; assay type: functional
Vero [7] = assay: cytotoxicity of synthesized analogs in Vero cells, SAR follow-up, cytotoxicity control for West Nile virus antiviral project, cell-based, set II (AID 2402); assay type: functional, Chlorocebus sabaeus
Prothrombin = Prothrombin (Bos taurus, UniProt P00735); assay: thrombin inhibition, dose response, biochemical, fluorescence polarization, uHTS hits (AID 602369); assay type: functional
[8] = target: 26S proteasome non-ATPase regulatory subunit 14 (Homo sapiens, UniProt O00487); assay: inhibition of proteasome subunit RPN11 – biochemical, fluorescence polarization, uHTS hits, confirmation (AID 602368); assay type: functional
Sequence of 26S proteasome non-ATPase regulatory subunit 14 (O00487 whole entry): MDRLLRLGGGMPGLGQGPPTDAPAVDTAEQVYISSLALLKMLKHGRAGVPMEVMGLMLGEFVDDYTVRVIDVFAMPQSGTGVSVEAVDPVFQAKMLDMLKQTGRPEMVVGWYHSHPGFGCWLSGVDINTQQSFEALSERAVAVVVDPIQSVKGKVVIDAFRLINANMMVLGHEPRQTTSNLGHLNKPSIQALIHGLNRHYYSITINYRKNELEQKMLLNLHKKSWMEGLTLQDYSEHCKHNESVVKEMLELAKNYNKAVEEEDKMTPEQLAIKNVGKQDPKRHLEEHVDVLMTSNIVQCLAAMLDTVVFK

[9] = target: 72 kDa type IV collagenase (Homo sapiens, UniProt P08253); assay: Dose Response validation of uHTS RPN11 inhibitor hits using a MMP-2 Fluorescence assay.; assay type: functional
Sequence of 72 kDa type IV collagenase (P08253 whole entry): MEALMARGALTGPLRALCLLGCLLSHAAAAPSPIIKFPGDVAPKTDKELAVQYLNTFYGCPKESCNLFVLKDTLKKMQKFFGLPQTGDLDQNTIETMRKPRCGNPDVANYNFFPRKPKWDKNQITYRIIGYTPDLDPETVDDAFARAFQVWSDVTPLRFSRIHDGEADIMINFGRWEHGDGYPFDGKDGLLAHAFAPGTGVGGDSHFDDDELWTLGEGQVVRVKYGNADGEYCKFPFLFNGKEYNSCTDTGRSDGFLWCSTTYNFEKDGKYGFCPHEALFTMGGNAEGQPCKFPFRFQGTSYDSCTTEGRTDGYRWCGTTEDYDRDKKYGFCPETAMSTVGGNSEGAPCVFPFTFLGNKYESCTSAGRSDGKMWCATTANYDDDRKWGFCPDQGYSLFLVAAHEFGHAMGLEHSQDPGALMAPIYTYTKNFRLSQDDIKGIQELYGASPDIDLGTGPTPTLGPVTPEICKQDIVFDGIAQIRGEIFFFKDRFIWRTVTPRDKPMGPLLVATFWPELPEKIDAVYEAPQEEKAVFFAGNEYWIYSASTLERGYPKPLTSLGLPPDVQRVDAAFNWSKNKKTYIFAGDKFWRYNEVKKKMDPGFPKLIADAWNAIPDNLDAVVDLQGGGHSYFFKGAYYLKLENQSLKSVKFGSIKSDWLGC

[10] = target: Dual specificity protein phosphatase 3 (Homo sapiens, UniProt P51452); assay: Dose Response Confirmation of compounds that inhibit VHR1 in Fluorescent Assay. [Related pubchem assays (depositor defined):AID1661, AID1878]; assay type: functional
Sequence of Dual specificity protein phosphatase 3 (P51452 whole entry): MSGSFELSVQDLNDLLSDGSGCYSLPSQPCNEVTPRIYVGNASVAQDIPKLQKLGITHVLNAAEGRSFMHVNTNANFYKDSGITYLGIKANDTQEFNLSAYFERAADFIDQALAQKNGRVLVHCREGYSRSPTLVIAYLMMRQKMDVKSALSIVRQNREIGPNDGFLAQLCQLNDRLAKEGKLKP

[11] = target: T1, Tyrosine-protein phosphatase non-receptor type 7 (Homo sapiens, UniProt P35236); assay: Dose Response confirmation of compounds that inhibit HePTP. [Related pubchem assays (depositor defined):AID1059, AID1661, AID2085]; assay type: functional
T1 sequence (P35236 whole entry): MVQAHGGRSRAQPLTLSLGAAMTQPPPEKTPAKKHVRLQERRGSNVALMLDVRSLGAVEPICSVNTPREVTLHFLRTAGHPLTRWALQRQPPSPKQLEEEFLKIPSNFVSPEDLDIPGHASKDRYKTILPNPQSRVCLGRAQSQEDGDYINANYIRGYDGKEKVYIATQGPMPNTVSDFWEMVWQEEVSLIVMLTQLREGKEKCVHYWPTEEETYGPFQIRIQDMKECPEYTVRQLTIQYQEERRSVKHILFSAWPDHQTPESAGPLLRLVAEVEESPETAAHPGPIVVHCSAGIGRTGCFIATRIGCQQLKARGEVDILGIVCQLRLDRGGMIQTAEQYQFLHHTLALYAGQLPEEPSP

[12] = target: T2, Polyadenylate-binding protein 1 (Homo sapiens, UniProt P11940); assay: PABP inhibition in translation initiation, SAR follow-up (AID 435018); assay type: functional
T2 sequence (P11940 whole entry): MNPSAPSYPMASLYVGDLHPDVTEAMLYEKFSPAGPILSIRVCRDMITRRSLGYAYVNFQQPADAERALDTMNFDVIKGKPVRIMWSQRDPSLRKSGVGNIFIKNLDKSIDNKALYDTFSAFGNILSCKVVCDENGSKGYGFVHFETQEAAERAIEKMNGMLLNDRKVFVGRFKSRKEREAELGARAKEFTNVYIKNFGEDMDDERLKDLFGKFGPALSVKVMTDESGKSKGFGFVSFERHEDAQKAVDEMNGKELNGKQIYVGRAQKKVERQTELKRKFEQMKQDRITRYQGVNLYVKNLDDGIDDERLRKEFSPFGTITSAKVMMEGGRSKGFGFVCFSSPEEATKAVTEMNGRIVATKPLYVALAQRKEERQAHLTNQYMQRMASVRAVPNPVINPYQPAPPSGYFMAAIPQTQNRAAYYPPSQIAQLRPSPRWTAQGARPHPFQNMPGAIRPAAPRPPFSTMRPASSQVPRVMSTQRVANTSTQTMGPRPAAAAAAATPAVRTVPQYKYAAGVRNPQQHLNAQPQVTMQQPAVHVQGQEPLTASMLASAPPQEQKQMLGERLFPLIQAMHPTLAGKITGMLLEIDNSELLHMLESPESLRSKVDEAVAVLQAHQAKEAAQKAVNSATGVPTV

[13] = target: T3, Eukaryotic translation initiation factor 4H (Homo sapiens, UniProt Q15056); assay: human eIF4H binding inhibitors, primary screen, translation initiation inhibitor project, biochemical, uHTS, fluorescence polarization (AID 2012)
[14] = target: T2, Polyadenylate-binding protein 1; assay: PABP poly(A) RNA binding inhibitors, primary screen, biochemical, fluorescence polarization, uHTS (AID 2014)
[15] = target: T3, Eukaryotic translation initiation factor 4H; assay: eIF4H inhibition in translation initiation, SAR follow-up (AID 435011); assay type: functional
SUMO-activating enzyme [16] = target: T4, SUMO-activating enzyme (Homo sapiens, UniProt Q9UBT2); assay: SUMOylation inhibitor hit validation, confirmation, SUMOylation inhibitor project, biochemical, AlphaScreen (AID 2018); assay type: functional
T4 sequence (Q9UBE0 whole entry): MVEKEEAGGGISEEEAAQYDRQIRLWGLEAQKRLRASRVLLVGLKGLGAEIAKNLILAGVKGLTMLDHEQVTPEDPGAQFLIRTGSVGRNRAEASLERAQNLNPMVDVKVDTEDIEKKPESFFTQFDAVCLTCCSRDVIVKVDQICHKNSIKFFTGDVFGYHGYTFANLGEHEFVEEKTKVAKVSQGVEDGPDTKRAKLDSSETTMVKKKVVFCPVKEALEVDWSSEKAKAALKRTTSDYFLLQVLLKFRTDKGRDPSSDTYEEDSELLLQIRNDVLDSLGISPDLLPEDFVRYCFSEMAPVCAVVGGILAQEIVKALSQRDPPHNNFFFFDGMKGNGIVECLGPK
T4 sequence (Q9UBT2 whole entry): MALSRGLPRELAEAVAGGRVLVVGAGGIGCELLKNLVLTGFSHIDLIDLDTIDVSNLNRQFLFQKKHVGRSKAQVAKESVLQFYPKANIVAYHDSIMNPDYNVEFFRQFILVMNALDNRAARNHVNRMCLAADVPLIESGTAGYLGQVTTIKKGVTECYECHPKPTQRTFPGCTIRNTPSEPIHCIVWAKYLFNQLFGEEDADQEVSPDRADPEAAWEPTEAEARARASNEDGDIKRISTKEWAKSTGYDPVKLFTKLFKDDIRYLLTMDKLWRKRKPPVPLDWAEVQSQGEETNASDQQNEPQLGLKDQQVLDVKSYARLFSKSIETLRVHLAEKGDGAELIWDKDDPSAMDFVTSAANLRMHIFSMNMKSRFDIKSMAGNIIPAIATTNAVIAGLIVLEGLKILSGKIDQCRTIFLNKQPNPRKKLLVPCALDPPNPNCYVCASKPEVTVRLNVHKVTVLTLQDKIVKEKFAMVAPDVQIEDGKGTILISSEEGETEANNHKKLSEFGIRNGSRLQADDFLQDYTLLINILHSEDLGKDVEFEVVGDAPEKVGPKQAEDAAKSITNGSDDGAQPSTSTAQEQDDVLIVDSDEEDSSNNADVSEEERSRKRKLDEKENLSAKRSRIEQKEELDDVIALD

[17] = target: Long-chain-fatty-acid--AMP ligase FadD28 (Mycobacterium tuberculosis, UniProt P9WQ59); assay: Fluorescence polarization aasay to screen for inhibitors that compete for the binding of FadD28 to a bisubstrate Measured in Biochemical System Using Plate Reader - 2147-01_Inhibitor_Dose_CherryPick_Activity.; assay type: functional, Mycobacterium tuberculosis H37Rv
SUMO-activating enzyme [18] = target: T4, SUMO-activating enzyme; assay: inhibitors of in vitro SUMOylation cascade, primary screen, biochemical, HTRF, uHTS (AID 2006); assay type: protein-complex assay
[19] = target: Eukaryotic translation initiation factor 4E (Mus musculus, UniProt P63073); assay: eIF4E–eIF4G protein interaction inhibitors, dose response, biochemical, TR-FRET (AID 855); assay type: functional;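 note: potency for disrupting eIF4E binding to eIF4GI seen as loss of FRET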
[20] = target: T1, Tyrosine-protein phosphatase non-receptor type 7; assay: redox-dependent HePTP inhibition, mechanism study, biochemical, fluorescence (AID 2068); assay type: functional
[21] = target: G-protein coupled receptor 55 (Homo sapiens, UniProt Q9Y2T6); assay: SAR Analysis of Selective Antagonists of GPR55 using an Image-Based Assay - Set 3. [Related pubchem assays (depositor defined):AID2058, AID2079]; assay type: functional
Sequence of G-protein coupled receptor 55 (Q9Y2T6 whole entry): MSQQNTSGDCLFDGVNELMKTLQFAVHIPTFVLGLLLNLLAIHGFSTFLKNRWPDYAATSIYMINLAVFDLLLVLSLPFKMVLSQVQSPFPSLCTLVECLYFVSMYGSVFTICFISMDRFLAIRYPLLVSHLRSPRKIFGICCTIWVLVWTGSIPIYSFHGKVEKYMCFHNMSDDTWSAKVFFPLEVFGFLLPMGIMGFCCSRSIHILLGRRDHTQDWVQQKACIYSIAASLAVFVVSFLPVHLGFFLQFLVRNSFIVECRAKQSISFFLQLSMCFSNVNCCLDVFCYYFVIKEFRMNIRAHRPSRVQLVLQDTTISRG

[22] = target: T5, G-protein coupled receptor 35 (Homo sapiens, UniProt Q9HC97); assay: SAR Analysis for the identification of Selective Antagonists of ERK1/2 Activity in GPR35-Overexpressing U2OS Cells - Set 2. [Related pubchem assays (depositor defined):AID2058, AID2079]; assay type: functional, cell-based
T5 sequence (Q9HC97 whole entry): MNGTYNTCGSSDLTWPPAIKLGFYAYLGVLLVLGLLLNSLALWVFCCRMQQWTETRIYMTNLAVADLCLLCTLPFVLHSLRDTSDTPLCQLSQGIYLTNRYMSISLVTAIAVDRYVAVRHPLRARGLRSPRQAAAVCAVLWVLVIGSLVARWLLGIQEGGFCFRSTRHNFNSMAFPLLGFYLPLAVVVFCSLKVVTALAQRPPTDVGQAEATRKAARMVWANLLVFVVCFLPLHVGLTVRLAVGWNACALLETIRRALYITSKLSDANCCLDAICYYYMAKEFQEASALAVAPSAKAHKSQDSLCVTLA

[23] = target: T5, G-protein coupled receptor 35; assay: SAR analysis of Antagonists of the GPR35 Receptor using an Image-Based Assay - Set 5. [Related pubchem assays (depositor defined):AID2058, AID2079]; assay type: functional
[24] = target: Glucose-6-phosphate 1-dehydrogenase (Homo sapiens, UniProt P11413); assay: human G6PD enzyme inhibitors, dose response, selectivity assay for P. falciparum G6PD inhibitor project, biochemical, fluorescence (AID 504792); assay type: functional
Sequence of Glucose-6-phosphate 1-dehydrogenase (P11413 whole entry): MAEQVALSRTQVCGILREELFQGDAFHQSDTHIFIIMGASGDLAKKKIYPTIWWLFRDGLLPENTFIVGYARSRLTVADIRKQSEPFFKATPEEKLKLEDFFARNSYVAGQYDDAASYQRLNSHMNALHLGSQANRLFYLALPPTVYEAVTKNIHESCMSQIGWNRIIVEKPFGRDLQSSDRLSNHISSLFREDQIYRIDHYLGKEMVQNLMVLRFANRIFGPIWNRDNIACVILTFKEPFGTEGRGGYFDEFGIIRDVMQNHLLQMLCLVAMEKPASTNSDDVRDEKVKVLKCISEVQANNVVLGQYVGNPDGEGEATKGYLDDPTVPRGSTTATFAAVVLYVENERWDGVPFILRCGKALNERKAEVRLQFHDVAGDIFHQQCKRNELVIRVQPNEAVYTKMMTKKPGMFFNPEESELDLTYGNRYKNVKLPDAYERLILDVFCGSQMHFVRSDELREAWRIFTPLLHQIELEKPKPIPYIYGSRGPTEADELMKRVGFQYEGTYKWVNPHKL

[25] = THP-1 cell cytotoxicity, dose response, cytotoxicity control for Vif-APOBEC3G degradation inhibitor project, THP-1 cells (AID 1117359); assay type: functional; details: Human immunodeficiency virus 1, THP-1
Nonstructural protein 1 = Nonstructural protein 1 (Influenza A virus, UniProt Q194T2); assay type: functional, Influenza A virus (A/California/07/2009(H1N1))
[26] = target: Matrix metalloproteinase-14 (Homo sapiens, UniProt P50281); assay: Dose Response confirmation of uHTS hits for a small molecule inhibitors of MT1-MMP activation in a fluorescence assay set 1.; assay type: functional
Protein Tat = Protein Tat (Human immunodeficiency virus type 1 group M subtype B (isolate HXB2)(HIV-1), UniProt P04608); assay type: functional;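 note: tat binding to TAR RNA read out by fluorescence polarization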
Sequence of Protein Tat (P04608 whole entry): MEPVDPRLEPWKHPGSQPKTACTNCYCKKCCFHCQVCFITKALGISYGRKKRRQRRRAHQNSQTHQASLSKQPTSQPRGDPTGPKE

[27] = target: Heat shock protein HSP 90-alpha (Homo sapiens, UniProt P07900); assay type: functional, organism-based
[28] = target: T6, Histone-lysine N-methyltransferase NSD2 (Homo sapiens, UniProt O96028); assay type: biochemical
T6 sequence (O96028 whole entry): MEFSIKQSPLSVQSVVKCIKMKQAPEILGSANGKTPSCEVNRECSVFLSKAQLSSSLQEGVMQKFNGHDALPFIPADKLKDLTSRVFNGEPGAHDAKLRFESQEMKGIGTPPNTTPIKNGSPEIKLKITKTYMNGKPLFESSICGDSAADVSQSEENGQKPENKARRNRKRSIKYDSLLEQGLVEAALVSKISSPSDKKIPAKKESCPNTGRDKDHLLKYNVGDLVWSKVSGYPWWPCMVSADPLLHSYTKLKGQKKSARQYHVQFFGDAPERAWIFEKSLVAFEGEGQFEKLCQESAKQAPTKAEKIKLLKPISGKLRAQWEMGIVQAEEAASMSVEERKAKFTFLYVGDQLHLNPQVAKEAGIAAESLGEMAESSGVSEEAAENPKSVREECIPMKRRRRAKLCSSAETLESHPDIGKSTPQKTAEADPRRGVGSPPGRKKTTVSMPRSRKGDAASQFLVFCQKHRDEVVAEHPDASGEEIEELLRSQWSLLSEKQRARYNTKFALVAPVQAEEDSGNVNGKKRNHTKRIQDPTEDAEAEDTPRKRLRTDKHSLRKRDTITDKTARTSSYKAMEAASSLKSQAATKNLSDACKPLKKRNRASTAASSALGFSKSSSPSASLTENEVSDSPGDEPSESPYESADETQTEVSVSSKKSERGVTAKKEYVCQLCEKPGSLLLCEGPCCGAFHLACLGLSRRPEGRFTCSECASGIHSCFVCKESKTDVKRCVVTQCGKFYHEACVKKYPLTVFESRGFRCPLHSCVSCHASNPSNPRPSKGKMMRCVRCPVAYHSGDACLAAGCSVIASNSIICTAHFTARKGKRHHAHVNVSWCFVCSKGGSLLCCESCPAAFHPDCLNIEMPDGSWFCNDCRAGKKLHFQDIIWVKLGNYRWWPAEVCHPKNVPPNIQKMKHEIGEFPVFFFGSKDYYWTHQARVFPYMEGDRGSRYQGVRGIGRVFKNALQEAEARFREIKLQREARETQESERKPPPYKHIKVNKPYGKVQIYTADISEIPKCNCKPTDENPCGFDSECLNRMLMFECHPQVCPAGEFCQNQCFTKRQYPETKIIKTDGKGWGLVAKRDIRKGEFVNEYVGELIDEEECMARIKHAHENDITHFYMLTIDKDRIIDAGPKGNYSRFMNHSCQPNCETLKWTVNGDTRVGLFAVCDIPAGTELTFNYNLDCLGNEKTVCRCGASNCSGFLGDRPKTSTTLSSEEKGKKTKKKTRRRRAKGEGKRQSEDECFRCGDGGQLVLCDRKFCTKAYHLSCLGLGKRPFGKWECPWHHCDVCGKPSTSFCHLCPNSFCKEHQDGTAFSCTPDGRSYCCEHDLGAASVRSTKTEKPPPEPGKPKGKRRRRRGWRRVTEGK

[29] = target: T7, COUP transcription factor 2 (Homo sapiens, UniProt P24468); assay: Luminescence-based cell-based high throughput dose response assay to identify inhibitors of COUP-TFII (NR2F2).; assay type: functional;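 note: HEK293 cells transiently cotransfected with COUP-TFII expression vector and reporter; luciferase reporter luminescence driven by COUP-TFII from the pX2-168 reporter plasmid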
T7 sequence (P24468 whole entry): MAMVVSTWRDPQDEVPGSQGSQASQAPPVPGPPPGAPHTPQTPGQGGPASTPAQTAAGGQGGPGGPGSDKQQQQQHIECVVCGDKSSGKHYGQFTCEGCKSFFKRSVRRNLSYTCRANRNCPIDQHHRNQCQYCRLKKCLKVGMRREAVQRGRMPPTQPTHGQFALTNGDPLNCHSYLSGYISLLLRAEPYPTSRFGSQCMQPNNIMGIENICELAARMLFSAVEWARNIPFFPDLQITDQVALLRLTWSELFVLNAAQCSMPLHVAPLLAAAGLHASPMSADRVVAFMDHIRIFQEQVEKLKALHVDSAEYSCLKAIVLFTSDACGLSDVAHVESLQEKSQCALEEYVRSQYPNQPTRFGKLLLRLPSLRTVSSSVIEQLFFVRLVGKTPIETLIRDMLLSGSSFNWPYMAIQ

[30] = target: Botulinum neurotoxin type F (Clostridium botulinum, UniProt P30996); assay: High-throughput multiplex microsphere dose response for inhibitors of toxin protease, specifically Botulinum neurotoxin light chain F protease, compounds from Cherry Pick 02.; assay type: functional; details: read-out: EC50_MICROM
Sequence of Botulinum neurotoxin type F (P30996 1-436 limits assumed): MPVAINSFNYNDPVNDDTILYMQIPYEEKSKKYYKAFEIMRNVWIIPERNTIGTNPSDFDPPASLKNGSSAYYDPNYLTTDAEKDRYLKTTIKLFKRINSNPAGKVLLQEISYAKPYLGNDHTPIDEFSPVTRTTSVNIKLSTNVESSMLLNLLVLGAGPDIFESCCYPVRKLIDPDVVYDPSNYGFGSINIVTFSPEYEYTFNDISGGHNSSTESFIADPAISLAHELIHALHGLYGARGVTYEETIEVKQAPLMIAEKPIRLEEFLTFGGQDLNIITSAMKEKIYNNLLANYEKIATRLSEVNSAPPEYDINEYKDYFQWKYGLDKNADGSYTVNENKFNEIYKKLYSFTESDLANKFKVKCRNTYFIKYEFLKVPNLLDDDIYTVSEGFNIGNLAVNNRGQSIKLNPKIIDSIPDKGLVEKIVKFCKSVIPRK

[31] = human group III sPLA2 inhibitors, dose response, biochemical, QFRET, IC50 (AID 743457);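 note: green fluorescence rise as the enzyme cleaves BODIPY PC-A2 in liposomes; potency for inhibition of the enzyme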
[32] = target: Cystic fibrosis transmembrane conductance regulator/Golgi-associated PDZ and coiled-coil motif-containing protein (Homo sapiens, UniProt P13569+Q9HD26); assay: CAL PDZ peptide-binding inhibitors, dose response, biochemical, fluorescence polarization, Cerulean-tagged CAL PDZ, cherry-picks (AID 504773)
[33] = target: Glutathione-S-transferase (Schistosoma japonicum, UniProt Q26513); assay: biotin-GST/anti-GST TR-FRET signal inhibitors, dose response, artefact control for Vif-APOBEC3G degradation inhibitor project, biochemical (AID 1117362); assay type: functional
Sequence of Glutathione-S-transferase (Q26513 whole entry): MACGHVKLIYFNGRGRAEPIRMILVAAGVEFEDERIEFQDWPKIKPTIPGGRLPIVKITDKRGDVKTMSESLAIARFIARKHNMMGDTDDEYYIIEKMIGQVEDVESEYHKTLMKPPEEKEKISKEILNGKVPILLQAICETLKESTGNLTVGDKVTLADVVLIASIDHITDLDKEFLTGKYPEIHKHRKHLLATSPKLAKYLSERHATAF

Brc1ccc2c(c1)CN1CCCC1=N2
active: IC50 (Vero [1]) 38.9 µM | CC50 (Vero [2]) > 40 µM | CC50 (Vero [3]) 124 µM | CC50 (Vero [3]; Chlorocebus sabaeus, Vero) > 66.6 µM | IC50 (Vero [4]) 19.7 µM | IC50 (Vero [5]) 16.8 µM | IC50 [6] > 66.6 µM and 60.3 µM | CC50 (Vero [7]) 197 µM | CC50 (Vero [7]; Chlorocebus sabaeus, Vero) > 100 µM

Cc1ccc(-c2nnn3c2nc(NCCc2ccc(S(N)(=O)=O)cc2)c2ccccc23)cc1
inactive: IC50 [9] > 100 µM
active: IC50 (Prothrombin) 77.4 µM | IC50 [8] 17.7 µM | IC50 [10] 0.783 µM | IC50 [11] 0.819 µM

COc1ccc(OC)c(NC(=O)CSc2ccc(-c3ccco3)nn2)c1
inactive: IC50 [12] > 100 µM
active: IC50 [13] 16.1 µM | IC50 [14] 93.4 µM | IC50 [15] 48.7 µM

Cc1ccc(NC(=O)CN2C(=O)S/C(=C/c3ccc(O)c([N+](=O)[O-])c3)C2=O)cc1C
inactive: IC50 [19] 50 µM
active: IC50 (SUMO-activating enzyme [16]) 5.08 µM | AC50 [17] 7.6 µM | IC50 (SUMO-activating enzyme [18]) 20.9 µM

O=C(Nc1ccc2nc(-c3ccco3)c(-c3ccco3)nc2c1)NC1CCCC1
active: IC50 [20] 1.1 µM

COC(=O)c1cnn(-c2ccc(Cl)cc2)c1/C=N/NC(=S)Nc1ccccc1
inactive: IC50 [21] > 32 µM | IC50 [22] 21.8 µM
active: IC50 [23] 0.211 µM

COc1cc(N(C)C)ccc1C=c1c2ccccc2n2c1cc(-c1ccccc1)[n+]2C
inactive: IC50 [24] > 80 µM | IC50 [9] > 100 µM | EC50 [30] > 20 µM | IC50 [31] 19.2 µM
active: CC50 [25] 0.22 µM | IC50 (Prothrombin) 11.8 µM | IC50 (Nonstructural protein 1) 3.2 µM | IC50 [26] 14.6 µM | IC50 [8] 24.9 µM | IC50 (Protein Tat) > 100 µM | AC50 [27] 7.6 µM | AC50 [28] 3.07 µM | IC50 [29] 4.89 µM | AC50 [32] 39.9 µM | IC50 [33] 3.69 µM

Source: ChEMBL document CHEMBL1201862, “PubChem BioAssay data set” (2004)
